# Results reported in ChEMBL document CHEMBL1132568, “Synthesis, pharmacological evaluation, and structure-activity relationship and quantitative structure-activity relationship studies on novel derivatives of 2,4-diamino-6,7-dimethoxyquinazoline alpha1-adrenoceptor antagonists” (J Med Chem, 1999).
# Target: T1, 5-hydroxytryptamine receptor 1A (Rattus norvegicus, UniProt P19327)
# T1 sequence (P19327 whole entry): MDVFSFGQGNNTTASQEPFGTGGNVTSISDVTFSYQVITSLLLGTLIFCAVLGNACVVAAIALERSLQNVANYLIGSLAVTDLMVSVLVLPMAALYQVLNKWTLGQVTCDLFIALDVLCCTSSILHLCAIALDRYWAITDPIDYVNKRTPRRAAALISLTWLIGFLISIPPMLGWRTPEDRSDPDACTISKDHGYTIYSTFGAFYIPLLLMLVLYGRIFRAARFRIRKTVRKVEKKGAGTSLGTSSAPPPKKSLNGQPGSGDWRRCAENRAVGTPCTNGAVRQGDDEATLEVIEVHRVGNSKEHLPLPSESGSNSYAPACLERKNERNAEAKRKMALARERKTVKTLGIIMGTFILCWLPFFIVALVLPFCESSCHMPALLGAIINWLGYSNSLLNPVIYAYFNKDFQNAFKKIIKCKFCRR
# Assay: Inhibitory concentration against 5-hydroxytryptamine 1A receptor (Inactive at >1000 nM concentration)
row,SMILES,IC50 [µM]
1,COc1cc2nc(N3CCC(c4ccccc4)(c4ccccc4)CC3)nc(N)c2cc1OC,> 1
2,COc1cc2nc(N3CCN(OCc4ccccc4)CC3)nc(N)c2cc1OC,> 1
3,COc1cc2nc(N3CCN(Cc4ccccc4)CC3)nc(N)c2cc1OC,> 1
4,COc1cc2nc(N3CCN(C(=O)CCC(=O)c4ccccc4)CC3)nc(N)c2cc1OC,> 1
5,COc1cc2nc(N3CCN(C(C)=O)CC3)nc(NC(C)=O)c2cc1OC,> 1

# Target: T2, Adrenergic receptor alpha-1 (Rattus norvegicus, UniProt P15823+P23944+P43140)
# T2 sequence (P15823 whole entry): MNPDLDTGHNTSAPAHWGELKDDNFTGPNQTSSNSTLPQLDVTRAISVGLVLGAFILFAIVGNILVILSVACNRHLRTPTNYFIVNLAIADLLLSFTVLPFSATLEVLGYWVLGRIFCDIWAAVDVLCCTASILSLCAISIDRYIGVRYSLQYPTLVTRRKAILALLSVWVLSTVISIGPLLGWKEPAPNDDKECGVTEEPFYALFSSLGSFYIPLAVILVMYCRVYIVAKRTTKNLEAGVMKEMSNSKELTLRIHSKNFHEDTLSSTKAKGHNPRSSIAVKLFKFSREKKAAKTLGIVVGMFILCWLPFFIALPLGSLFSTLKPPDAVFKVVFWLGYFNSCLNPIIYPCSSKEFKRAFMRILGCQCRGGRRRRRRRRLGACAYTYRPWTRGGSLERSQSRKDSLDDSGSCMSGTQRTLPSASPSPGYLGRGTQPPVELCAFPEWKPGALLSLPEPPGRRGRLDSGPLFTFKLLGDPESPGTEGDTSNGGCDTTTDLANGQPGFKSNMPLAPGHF
# T2 sequence (P23944 whole entry): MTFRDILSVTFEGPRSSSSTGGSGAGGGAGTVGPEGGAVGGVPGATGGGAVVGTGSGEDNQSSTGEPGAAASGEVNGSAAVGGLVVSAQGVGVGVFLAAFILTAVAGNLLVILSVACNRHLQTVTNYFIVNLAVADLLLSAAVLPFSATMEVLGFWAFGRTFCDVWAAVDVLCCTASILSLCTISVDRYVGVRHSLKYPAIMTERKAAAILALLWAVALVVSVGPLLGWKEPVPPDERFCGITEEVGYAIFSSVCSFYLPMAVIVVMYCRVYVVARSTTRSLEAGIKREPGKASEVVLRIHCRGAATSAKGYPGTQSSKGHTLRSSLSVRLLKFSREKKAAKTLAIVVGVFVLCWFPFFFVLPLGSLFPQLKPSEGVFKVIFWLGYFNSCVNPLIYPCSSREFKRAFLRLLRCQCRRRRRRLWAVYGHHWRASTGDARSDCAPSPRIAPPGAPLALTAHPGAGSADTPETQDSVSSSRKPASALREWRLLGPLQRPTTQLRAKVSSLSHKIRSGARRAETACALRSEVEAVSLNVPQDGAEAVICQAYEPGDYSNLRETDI
# T2 sequence (P43140 whole entry): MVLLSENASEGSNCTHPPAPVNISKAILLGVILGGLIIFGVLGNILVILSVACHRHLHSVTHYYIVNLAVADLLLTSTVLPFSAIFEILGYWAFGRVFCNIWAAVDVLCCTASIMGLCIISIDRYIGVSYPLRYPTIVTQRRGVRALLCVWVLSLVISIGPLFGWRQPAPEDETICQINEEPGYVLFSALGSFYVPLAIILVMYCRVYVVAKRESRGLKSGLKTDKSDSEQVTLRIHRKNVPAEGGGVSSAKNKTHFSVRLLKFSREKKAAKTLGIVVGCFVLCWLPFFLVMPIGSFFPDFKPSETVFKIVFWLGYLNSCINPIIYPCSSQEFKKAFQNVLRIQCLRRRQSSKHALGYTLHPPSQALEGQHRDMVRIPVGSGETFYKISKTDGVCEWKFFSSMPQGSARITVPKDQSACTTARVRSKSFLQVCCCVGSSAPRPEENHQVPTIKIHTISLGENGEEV
# Assay: Inhibition of Alpha-1 adrenergic receptor in rat cortex membrane
# Format: cell membranes
row,SMILES,IC50 [µM]
1,COc1cc2nc(N3CCC(c4ccccc4)(c4ccccc4)CC3)nc(N)c2cc1OC,0.259
2,COc1cc2nc(N3CCN(OCc4ccccc4)CC3)nc(N)c2cc1OC,0.111
3,COc1cc2nc(N3CCN(Cc4ccccc4)CC3)nc(N)c2cc1OC,0.032
4,COc1cc2nc(N3CCN(C(=O)CCC(=O)c4ccccc4)CC3)nc(N)c2cc1OC,0.015
5,COc1cc2nc(N3CCN(C(C)=O)CC3)nc(NC(C)=O)c2cc1OC,5.08

# Target: D(2) dopamine receptor (Rattus norvegicus, UniProt P61169)
# Assay: Inhibitory concentration against Dopamine receptor D2 (Inactive at >1000 nM concentration)
# D(2) dopamine receptor, sequence (P61169 whole entry): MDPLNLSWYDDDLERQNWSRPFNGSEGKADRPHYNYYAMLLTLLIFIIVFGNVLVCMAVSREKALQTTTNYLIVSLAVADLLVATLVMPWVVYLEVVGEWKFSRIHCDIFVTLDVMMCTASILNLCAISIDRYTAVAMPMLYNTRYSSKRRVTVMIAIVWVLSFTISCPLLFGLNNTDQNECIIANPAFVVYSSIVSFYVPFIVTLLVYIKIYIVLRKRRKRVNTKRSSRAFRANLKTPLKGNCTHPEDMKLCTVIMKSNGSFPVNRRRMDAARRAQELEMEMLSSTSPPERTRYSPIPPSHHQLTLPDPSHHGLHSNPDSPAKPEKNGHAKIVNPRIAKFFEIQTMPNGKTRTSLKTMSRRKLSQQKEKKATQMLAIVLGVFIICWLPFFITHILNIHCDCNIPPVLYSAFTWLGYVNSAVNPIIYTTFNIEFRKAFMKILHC
row,SMILES,IC50 [µM]
1,COc1cc2nc(N3CCC(c4ccccc4)(c4ccccc4)CC3)nc(N)c2cc1OC,> 1
2,COc1cc2nc(N3CCN(OCc4ccccc4)CC3)nc(N)c2cc1OC,> 1
3,COc1cc2nc(N3CCN(Cc4ccccc4)CC3)nc(N)c2cc1OC,> 1
4,COc1cc2nc(N3CCN(C(=O)CCC(=O)c4ccccc4)CC3)nc(N)c2cc1OC,> 1
5,COc1cc2nc(N3CCN(C(C)=O)CC3)nc(NC(C)=O)c2cc1OC,> 1

# System: Canis familiaris
# Assay: In vivo hypotensive effect(DBP) in dog after intravenous administration.
# Format: functional, Canis lupus familiaris
row,SMILES,ED25 [mg/kg]
1,COc1cc2nc(N3CCN(C(=O)CCC(=O)c4ccccc4)CC3)nc(N)c2cc1OC,0.132

# Target: 5-hydroxytryptamine receptor 2A (Rattus norvegicus, UniProt P14842)
# Assay: Inhibitory concentration against 5-hydroxytryptamine 2A receptor (Inactive at >1000 nM concentration)
# 5-hydroxytryptamine receptor 2A, sequence (P14842 whole entry): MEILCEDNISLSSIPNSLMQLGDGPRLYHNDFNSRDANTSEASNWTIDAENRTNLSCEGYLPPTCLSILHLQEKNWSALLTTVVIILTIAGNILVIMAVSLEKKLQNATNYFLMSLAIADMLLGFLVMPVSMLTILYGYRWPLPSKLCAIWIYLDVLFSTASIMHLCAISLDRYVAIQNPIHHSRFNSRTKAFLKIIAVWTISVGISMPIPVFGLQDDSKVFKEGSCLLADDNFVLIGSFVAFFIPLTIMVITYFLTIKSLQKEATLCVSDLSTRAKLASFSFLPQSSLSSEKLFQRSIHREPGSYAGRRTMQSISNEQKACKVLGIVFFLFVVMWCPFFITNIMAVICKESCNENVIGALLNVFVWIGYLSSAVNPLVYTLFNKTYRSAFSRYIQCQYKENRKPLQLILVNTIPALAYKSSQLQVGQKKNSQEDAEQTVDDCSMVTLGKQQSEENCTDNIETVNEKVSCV
row,SMILES,IC50 [µM]
1,COc1cc2nc(N3CCC(c4ccccc4)(c4ccccc4)CC3)nc(N)c2cc1OC,> 1
2,COc1cc2nc(N3CCN(OCc4ccccc4)CC3)nc(N)c2cc1OC,> 1
3,COc1cc2nc(N3CCN(Cc4ccccc4)CC3)nc(N)c2cc1OC,> 1
4,COc1cc2nc(N3CCN(C(=O)CCC(=O)c4ccccc4)CC3)nc(N)c2cc1OC,> 1
5,COc1cc2nc(N3CCN(C(C)=O)CC3)nc(NC(C)=O)c2cc1OC,> 1

# System: Canis familiaris
# Assay: In vivo effect on urethral contractility (UP) of dog after intravenous administration.
# Format: functional, Canis lupus familiaris, Urethra
row,SMILES,ED50 [mg/kg]
1,COc1cc2nc(N3CCN(C(=O)CCC(=O)c4ccccc4)CC3)nc(N)c2cc1OC,0.035

# Target: T3, Alpha-1A adrenergic receptor (Rattus norvegicus, UniProt P43140)
# T3 sequence (P43140 whole entry): T2 sequence (P43140 whole entry)
# Assay: The binding affinity towards Alpha-1A adrenergic receptor in the COS cell line.
# Format: cell-based
row,SMILES,Ki [µM]
1,COc1cc2nc(N3CCN(C(=O)CCC(=O)c4ccccc4)CC3)nc(N)c2cc1OC,0.00568

# Target: T4, Adrenergic receptor alpha-2 (Rattus norvegicus, UniProt P22086+P19328+P22909)
# T4 sequence (P22086 whole entry): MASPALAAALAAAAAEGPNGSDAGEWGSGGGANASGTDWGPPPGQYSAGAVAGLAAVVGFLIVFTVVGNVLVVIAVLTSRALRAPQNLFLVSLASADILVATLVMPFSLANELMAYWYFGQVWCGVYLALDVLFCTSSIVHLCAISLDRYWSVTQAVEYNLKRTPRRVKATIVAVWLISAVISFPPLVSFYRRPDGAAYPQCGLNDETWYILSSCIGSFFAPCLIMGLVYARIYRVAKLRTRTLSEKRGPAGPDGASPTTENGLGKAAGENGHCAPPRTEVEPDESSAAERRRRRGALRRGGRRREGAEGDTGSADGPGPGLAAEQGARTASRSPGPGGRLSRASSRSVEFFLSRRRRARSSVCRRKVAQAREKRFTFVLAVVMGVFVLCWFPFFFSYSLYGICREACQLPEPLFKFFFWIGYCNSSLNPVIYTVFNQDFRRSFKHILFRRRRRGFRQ
# T4 sequence (P19328 whole entry): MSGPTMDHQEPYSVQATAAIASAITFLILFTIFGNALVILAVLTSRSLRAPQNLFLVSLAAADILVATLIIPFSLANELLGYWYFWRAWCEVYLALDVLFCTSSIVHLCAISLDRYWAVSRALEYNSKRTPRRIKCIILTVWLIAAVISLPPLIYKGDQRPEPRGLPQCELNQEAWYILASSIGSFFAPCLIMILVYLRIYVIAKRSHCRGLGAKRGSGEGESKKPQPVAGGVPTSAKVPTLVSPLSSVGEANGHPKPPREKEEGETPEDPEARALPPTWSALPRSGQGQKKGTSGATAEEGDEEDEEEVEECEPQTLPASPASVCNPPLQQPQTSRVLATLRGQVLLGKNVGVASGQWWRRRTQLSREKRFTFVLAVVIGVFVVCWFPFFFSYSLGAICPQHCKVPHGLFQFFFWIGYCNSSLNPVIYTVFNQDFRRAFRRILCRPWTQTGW
# T4 sequence (P22909 whole entry): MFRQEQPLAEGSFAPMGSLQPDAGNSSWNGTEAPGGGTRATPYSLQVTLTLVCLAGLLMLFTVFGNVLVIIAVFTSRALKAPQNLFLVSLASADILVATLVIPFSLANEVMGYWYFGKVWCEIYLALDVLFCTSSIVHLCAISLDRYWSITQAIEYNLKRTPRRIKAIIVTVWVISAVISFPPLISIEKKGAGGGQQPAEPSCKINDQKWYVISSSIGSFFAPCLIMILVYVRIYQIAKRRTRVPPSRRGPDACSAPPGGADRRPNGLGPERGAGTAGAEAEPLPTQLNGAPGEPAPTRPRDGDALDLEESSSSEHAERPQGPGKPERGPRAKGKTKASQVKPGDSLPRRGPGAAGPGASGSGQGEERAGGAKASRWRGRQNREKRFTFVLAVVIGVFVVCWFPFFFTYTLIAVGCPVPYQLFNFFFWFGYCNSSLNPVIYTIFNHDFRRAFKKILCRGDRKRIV
# Assay: Inhibitory concentration against Alpha-2 adrenergic receptor
# Format: protein assay
row,SMILES,IC50 [µM]
1,COc1cc2nc(N3CCC(c4ccccc4)(c4ccccc4)CC3)nc(N)c2cc1OC,> 1
2,COc1cc2nc(N3CCN(OCc4ccccc4)CC3)nc(N)c2cc1OC,> 1
3,COc1cc2nc(N3CCN(Cc4ccccc4)CC3)nc(N)c2cc1OC,> 1
4,COc1cc2nc(N3CCN(C(=O)CCC(=O)c4ccccc4)CC3)nc(N)c2cc1OC,> 1
5,COc1cc2nc(N3CCN(C(C)=O)CC3)nc(NC(C)=O)c2cc1OC,> 1
